Experiments:
[1] = human gut metagenome, 24 h, 2 µM
[2] = (§1) The drug is tested on WLS-370 corresponding to human gut metagenome with ENA study accession number: PRJEB37062 and ENA sample accession number: ERS12561793 for biotransformation under anaerobic condition. The drug concentrations were measured over 9 timepoints collected between 0 and 24 hours of incubation by liquid-chromatography-coupled mass spectrometry (LC–MS); conditions: 2 µM
[3] = as §1, with “WLS-310” for “WLS-370”, “ERS12561785” for “ERS12561793”; conditions: 2 µM
[4] = human gut metagenome, 24 h, 2 µM; remark: listed apart in the source
[5] = human gut metagenome, 24 h, 2 µM; remark: listed apart in the source
[6] = as §1, with “Z-026” for “WLS-370”, “to” for “to human gut”, “ERS12561825” for “ERS12561793”; conditions: 2 µM
[7] = as §1, with “WLS-077” for “WLS-370”, “ERS12561750” for “ERS12561793”; conditions: 2 µM
[8] = as §1, with “Z-014” for “WLS-370”, “rat” for “human”, “ERS12561814” for “ERS12561793”; conditions: 2 µM
[9] = human gut metagenome, 24 h, 2 µM; remark: listed apart in the source
[10] = human gut metagenome, 24 h, 2 µM; remark: listed apart in the source
[11] = human gut metagenome, 24 h, 2 µM; remark: listed apart in the source
[12] = as §1, with “Z-030” for “WLS-370”, “mouse” for “human”, “ERS12561829” for “ERS12561793”; conditions: 2 µM
[13] = human gut metagenome, 24 h, 2 µM; remark: listed apart in the source
[14] = human gut metagenome, 24 h, 2 µM; remark: listed apart in the source
[15] = human gut metagenome, 24 h, 2 µM; remark: listed apart in the source
[16] = as §1, with “WLS-052” for “WLS-370”, “ERS12561747” for “ERS12561793”; conditions: 2 µM
[17] = as §1, with “Z-001” for “WLS-370”, “mouse” for “human”, “ERS12561801” for “ERS12561793”; conditions: 2 µM
[18] = human gut metagenome, 24 h, 2 µM; remark: listed apart in the source
[19] = human gut metagenome, 24 h, 2 µM; remark: listed apart in the source
[20] = as §1, with “WLS-073” for “WLS-370”, “ERS12561749” for “ERS12561793”; conditions: 2 µM
Note: call rule not given here.

| Structure (SMILES) | Bacterial Biotransformation [1] | Bacterial Biotransformation [2] | Bacterial Biotransformation [3] | Bacterial Biotransformation [4] | Bacterial Biotransformation [5] | Bacterial Biotransformation [6] | Bacterial Biotransformation [7] | Bacterial Biotransformation [8] | Bacterial Biotransformation [9] | Bacterial Biotransformation [10] | Bacterial Biotransformation [11] | Bacterial Biotransformation [12] | Bacterial Biotransformation [13] | Bacterial Biotransformation [14] | Bacterial Biotransformation [15] | Bacterial Biotransformation [16] | Bacterial Biotransformation [17] | Bacterial Biotransformation [18] | Bacterial Biotransformation [19] | Bacterial Biotransformation [20] |
| --- | --- | --- | --- | --- | --- | --- | --- | --- | --- | --- | --- | --- | --- | --- | --- | --- | --- | --- | --- | --- |
| COc1c(C)c2c(c(O)c1C/C=C(\C)CCC(=O)OCCN1CCOCC1)C(=O)OC2 [MYCOPHENOLATE MOFETIL] | Compound metabolized | Compound metabolized | Compound metabolized | Compound metabolized | Compound NOT metabolized | Compound metabolized | Compound metabolized | Compound metabolized | Compound metabolized | Compound metabolized | Compound metabolized | Compound NOT metabolized | Compound metabolized | Compound metabolized | Compound metabolized | Compound metabolized | Compound metabolized | Compound metabolized | Compound metabolized | Compound metabolized |
| CCN(CC)CCOC(=O)C(Cc1cccc2ccccc12)CC1CCCO1.O=C(O)C(=O)O (stereo not given) [NAFRONYL OXALATE] | Compound metabolized | Compound NOT metabolized | Compound metabolized | Compound metabolized | Compound metabolized | Compound NOT metabolized | Compound metabolized | Compound NOT metabolized | Compound metabolized | Compound metabolized | Compound NOT metabolized | Compound NOT metabolized | Compound metabolized | Compound metabolized | Compound NOT metabolized | Compound metabolized | Compound NOT metabolized | Compound metabolized | Compound metabolized | Compound metabolized |
| C=CCN1CC[C@]23c4c5ccc(O)c4O[C@H]2C(=O)CC[C@@]3(O)[C@H]1C5 [NALOXONE] | Compound NOT metabolized | Compound NOT metabolized | Compound NOT metabolized | Compound metabolized | Compound NOT metabolized | Compound NOT metabolized | Compound NOT metabolized | Compound NOT metabolized | Compound metabolized | Compound NOT metabolized | Compound NOT metabolized | Compound NOT metabolized | Compound NOT metabolized | Compound NOT metabolized | Compound NOT metabolized | Compound NOT metabolized | Compound metabolized | Compound NOT metabolized | Compound NOT metabolized | Compound NOT metabolized |
| CCc1nn(CCCN2CCN(c3cccc(Cl)c3)CC2)c(=O)n1CCOc1ccccc1 [NEFAZODONE] | Compound metabolized | Compound NOT metabolized | Compound metabolized | Compound metabolized | Compound metabolized | Compound NOT metabolized | Compound NOT metabolized | Compound NOT metabolized | Compound metabolized | Compound metabolized | Compound NOT metabolized | Compound NOT metabolized | Compound metabolized | Compound NOT metabolized | Compound metabolized | Compound metabolized | Compound NOT metabolized | Compound metabolized | Compound NOT metabolized | Compound NOT metabolized |

Source: ChEMBL document CHEMBL5724914, “Linking interpersonal differences in gut microbiota composition and drug biotransformation activity” (2024)
